Patent US7662780B2, “Administering hypocretin to obese individuals” (The Regents of the University of California, priority 2003, dated 2010)
Where no end group is shown, it is not given here.

Columns and labels:
[1] = Hypocretin via ventricular injection (osmotic minipump): running wheel activity and body weight; type: in vivo, rat; details: third ventricle minipump, about 0.03 to about 600 μg/kg/day, vs control and untreated animals
Description: The effect of hypocretin administration on the body weight of a normal rat or other rodent is investigated. The study includes ten animals in the experimental group, ten animals in the control group, and ten animals in the untreated group. […] Animals in the experimental and control groups are fitted with an Alzet Model 2004 osmotic minipump (Alza). The minipump delivers solution to the third ventricle of the brain, adjacent to the hypothalamus, for a one to six month period. The experimental group receives hypocretin peptide continuously at dosing regimes of about 0.03 μg/kg/day to about 600 μg/kg/day. The control group receives diluent. Animals in all groups are provided with a running wheel and customary rat chow is available ad libitum. Each animal is weighed daily (or another sign of excess body weight is measured), and the running wheel activity for each animal is recorded.

[2] = Activity of hypocretin in obese humans: wrist actigraph and body weight; type: in vivo; details: about 0.03 to about 600 μg/kg/day for four weeks, vs placebo control group
Description: Hypocretin or hypocretin agonist is submitted to safety testing following usual Food and Drug Administration (FDA) requirements. Afterward, the effect of administration of hypocretin or hypocretin agonist on obese humans is investigated. The study includes ten humans in the experimental group and ten humans in the control group. Humans in the experimental and control groups receive administration by intranasal inhalant, or by transdermal or other means. The experimental group receives hypocretin or hypocretin agonist at dosing regimes of about 0.03 μg/kg/day to about 600 μg/kg/day for a period of four weeks. The control group receives a placebo. Activity levels of the humans in both groups are measured with a wrist actigraph, and each human is weighed daily (or another sign of excess body weight is measured).
Each animal is weighed daily, and the running wheel activity for each animal is recorded.

[3] = Motor activity (actigraph) after Hcrt-1 injection; type: in vivo
Experimental: FIG. 1. Acute changes in motor activity after Hcrt-1 administration. (a) A representative actigraph record (5 minute bins) showing the activity level during the 2 hr period following Hcrt-1 (3 μg/kg) and normal saline. Hcrt-1 produced an increase in motor activity within 5 minutes of injection that persisted for 60 minutes. […] In (b) values are mean±SE, *p<0.05; **p<0.01, Newman-Keuls test.
The motor or muscular activity level of the individual can be measured by a variety of means. Motor activity levels may be directly observed and measured by clinicians, or the individual may themselves measure their activity level which typically includes body movement or locomotion. The monitoring can include maintaining a log of activity, including intensity and duration of the activity. An actigraph device, or activity monitor, may be used. An actigraph detects activity by sensing motion via an internal accelerometer. It is a small lightweight instrument that can be worn, for example, on the wrist, waist, or ankle to record physical activity. Actigraphs are often used to estimate energy expenditure or to study motion in an individual, as described in Example 4 and shown in FIG. 1.
The differences in amplitude of motor activity following hypocretin and saline injection diminished over the following 60 minutes (FIGS. 1a, 1b).

[4] = Hypocretin via jugular catheter/osmotic minipump: running wheel activity and body weight; type: in vivo, rats; details: about 0.03 to about 600 μg/kg/day, vs control and untreated animals
Experimental: The effect of administration of hypocretin-1 or other agonists of the hypocretin receptors on rats is investigated. The study includes ten animals in the experimental group, ten animals in the control group, and ten animals in the untreated group. […] Animals in the experimental and control groups receive a jugular catheter implant attached to an osmotic minipump. The experimental group receives hypocretin-1 or other agonist at dosing regimes of about 0.03 μg/kg/day to about 600 μg/kg/day. The control group receives diluent. Animals in all groups are provided with a running wheel and customary rat chow is available ad libitum. Each animal is weighed daily (or another sign of excess body weight is measured), and the running wheel activity for each animal is recorded.

Hcrt-1 antiserum = experiment: Solid-phase radioimmunoassay (RIA) for Hcrt-1; type: binding; details: competition with 125I-labeled Hcrt-1 for immobilized antiserum
Experimental: FIG. 2. The protocol for a sequential multiple antigen radioimmunoassay for hypocretin-1 (Hcrt-1) and hypocretin-2 (Hcrt-2). Sample or standard is loaded into wells onto which antiserum for Hcrt-1 has been pre-adsorbed via protein-A Subsequently, radiolabeled Hcrt-1 (Hcrt-1*) is added to the wells. Competition for the antiserum then ensues between Hcrt-1 and Hcrt-1*. The contents of the wells are then transferred to new wells onto which antiserum for Hcrt-2 has been preadsorbed and the procedure repeated but with radiolabeled Hcrt-2 (Hcrt-2*). The previous wells are washed and counted for bound radioactivity. […]
Furthermore, sensitivity is increased over that obtained with more traditional methods using identical antibodies and assay volumes. […] For example, the individual wells of a 96-well plate containing Ab-bound tracer peptide are then physically separated and counted in a gamma counter. […]
The Hcrt-1, iodinated Hcrt-1, and Hcrt-1 antiserum were obtained from Phoenix Pharmaceuticals, Inc. (530 Harbor Blvd, Belmont, Calif.). […] This enables direct reading of radioactivity in a Top Count plate reader (Packard) without the requirement to separate out individual wells. […]
Prior to RIA, Hcrt-1 is extracted from the CSF or plasma sample. […] The eluant is then dried down and re-suspended in RIA buffer ready for assay. […]

[5] = Hcrt-1 3 μg/kg vs normal saline, actigraph record

Row | IC50 value for this Hcrt-1 assay (Hcrt-1 antiserum) | Substance | running wheel activity [1] | weight gain [1] | activity levels (wrist actigraph) [2] | weight loss [2] | motor activity ([3]; first 30 minutes after injection, vs saline injection) | running wheel activity [4] | weight gain [4] | increase of motor activity as compared to saline control ([3]; 0-30 and 30-60 minutes after administration, Newman-Keuls test) | onset of increase in motor activity after injection [3, 5] | persistence of increase in motor activity [3, 5]
1 |  | hypocretin | increased running wheel activity | decreased weight gain | increased activity levels | greater weight loss | increased motor activity | increased running wheel activity | decreased weight gain |  |  | 
2 | 2 fmol | hypocretin-1 (QPLPDCCRQKTCSCRLYELLHGAGNHAAGILTL; ends and bridges not checked; cysteine pairing not given here; UniProt O43612 34-66, looked up) [Hcrt-1, hypocretin neuropeptide derived from prepro-hypocretin; human orexin-A is reported as a 33 residue peptide of 3562 Da] |  |  |  |  |  |  |  | statistically significant | ≤ 5 min | 60 min
